Test results reported in ChEMBL document CHEMBL1201862, “PubChem BioAssay data set” (2004).
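Cultured in 96-well plates, cells were exposed to test compound for 48 hours across five concentrations. GI50 is the concentration that inhibits growth by half.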 The source made the active and inactive calls. Rule as the data show it: active = GI50 up to about 1.1 µM and inactive = higher.

What was measured:
Test in all cases: NCI-60 cell line screen, 48 h
UACC-257 = system: UACC-257
K562 = system: K562
UACC-62 = system: UACC-62
HL-60 = system: HL-60
SN12C = system: SN12C
HCC 2998 = system: HCC 2998
NCI-H460 = system: NCI-H460
OVCAR-4 = system: OVCAR-4
HCT-116 = system: HCT-116
PC-3 = system: PC-3
SR = system: SR
SF-295 = system: SF-295
786-0 = system: 786-0
SNB-19 = system: SNB-19
OVCAR-5 = system: OVCAR-5
EKVX = system: EKVX
SW-620 = system: SW-620
SK-MEL-5 = system: SK-MEL-5
COLO 205 = system: COLO 205
OVCAR-3 = system: OVCAR-3
SK-OV-3 = system: SK-OV-3
MCF7 = system: MCF7
NCI-H226 = system: NCI-H226
HOP-62 = system: HOP-62
HOP-92 = system: HOP-92
MDA-MB-231 = system: MDA-MB-231
SK-MEL-2 = system: SK-MEL-2
NCI/ADR-RES = system: NCI/ADR-RES
KM12 = system: KM12
DU-145 = system: DU-145
SF-268 = system: SF-268
SK-MEL-28 = system: SK-MEL-28
SNB-75 = system: SNB-75
NCI-H23 = system: NCI-H23
LOX IMVI = system: LOX IMVI
A498 = system: A498
MOLT-4 = system: MOLT-4
SF-539 = system: SF-539
U-251 = system: U-251
TK-10 = system: TK-10
IGROV-1 = system: IGROV-1
HT-29 = system: HT-29
A549 = system: A549
NCI-H522 = system: NCI-H522
M14 = system: M14
MDA-MB-435 = system: MDA-MB-435
RXF 393 = system: RXF 393
OVCAR-8 = system: OVCAR-8
CCRF-CEM = system: CCRF-CEM
HCT-15 = system: HCT-15
UO-31 = system: UO-31
ACHN = system: ACHN
CAKI-1 = system: CAKI-1
Malme-3M = system: Malme-3M
T47D = system: T47D
RPMI-8226 = system: RPMI-8226
BT-549 = system: BT-549
Hs-578T = system: Hs-578T
MDA-N = system: MDA-N

For `O=CC12c3ccccc3C(c3ccccc31)C1C(=O)NC(=O)C12` (stereo not drawn), the GI50 (UACC-257) was > 100 µM (inactive), the GI50 (K562) was 66.8 µM (inactive) and the GI50 (UACC-62) was > 100 µM (inactive). The GI50 (HL-60) was > 100 µM (inactive), the GI50 (SN12C) was > 100 µM (inactive) and the GI50 (HCC 2998) was > 100 µM (inactive). For the same molecule, the GI50 (NCI-H460) was > 100 µM (inactive), the GI50 (OVCAR-4) was > 100 µM (inactive) and the GI50 (HCT-116) was 45.9 µM (inactive). For the same molecule, the GI50 (PC-3) was > 100 µM (inactive), the GI50 (SR) was > 100 µM (inactive) and the GI50 (SF-295) was > 100 µM (inactive). The GI50 (786-0) was > 100 µM (inactive), the GI50 (SNB-19) was > 100 µM (inactive) and the GI50 (OVCAR-5) was > 100 µM (inactive). For the same molecule, the GI50 (EKVX) was > 100 µM (inactive), the GI50 (SW-620) was > 100 µM (inactive) and the GI50 (SK-MEL-5) was 37.2 µM (inactive). For the same molecule, the GI50 (COLO 205) was > 100 µM (inactive), the GI50 (OVCAR-3) was > 100 µM (inactive) and the GI50 (SK-OV-3) was > 100 µM (inactive). The GI50 (MCF7) was 0.953 µM (active), the GI50 (NCI-H226) was > 100 µM (inactive) and the GI50 (HOP-62) was 56 µM (inactive). The GI50 (HOP-92) was > 100 µM (inactive), the GI50 (MDA-MB-231) was > 100 µM (inactive) and the GI50 (SK-MEL-2) was > 100 µM (inactive). For the same molecule, the GI50 (NCI/ADR-RES) was > 100 µM (inactive), the GI50 (KM12) was > 100 µM (inactive) and the GI50 (DU-145) was > 100 µM (inactive). The GI50 (SF-268) was > 100 µM (inactive), the GI50 (SK-MEL-28) was > 100 µM (inactive) and the GI50 (SNB-75) was 39 µM (inactive). The GI50 (NCI-H23) was > 100 µM (inactive), the GI50 (LOX IMVI) was 50.1 µM (inactive) and the GI50 (A498) was 10.8 µM (inactive). For the same molecule, the GI50 (MOLT-4) was 97.3 µM (inactive), the GI50 (SF-539) was > 100 µM (inactive) and the GI50 (U-251) was > 100 µM (inactive). The GI50 (TK-10) was > 100 µM (inactive), the GI50 (IGROV-1) was 37.2 µM (inactive) and the GI50 (HT-29) was > 100 µM (inactive). For the same molecule, the GI50 (A549) was > 100 µM (inactive), the GI50 (NCI-H522) was 53 µM (inactive) and the GI50 (M14) was > 100 µM (inactive). The GI50 (MDA-MB-435) was > 100 µM (inactive), the GI50 (RXF 393) was 76.2 µM (inactive) and the GI50 (OVCAR-8) was > 100 µM (inactive). For the same molecule, the GI50 (CCRF-CEM) was 41.7 µM (inactive), the GI50 (HCT-15) was > 100 µM and the GI50 (UO-31) was 44.7 µM (inactive). The GI50 (ACHN) was > 100 µM (inactive), the GI50 (CAKI-1) was 54.2 µM (inactive) and the GI50 (Malme-3M) was 90.2 µM (inactive). The GI50 (T47D) was 75.3 µM (inactive).
`CSc1n[nH]c2c1c(C)nn2-c1ccccc1` was tested, and the GI50 (UACC-257) was > 100 µM (inactive), the GI50 (K562) was > 100 µM (inactive) and the GI50 (UACC-62) was > 100 µM (inactive). For the same molecule, the GI50 (HL-60) was 71.3 µM (inactive), the GI50 (HCC 2998) was > 100 µM (inactive) and the GI50 (NCI-H460) was > 100 µM (inactive). The GI50 (OVCAR-4) was > 100 µM (inactive), the GI50 (PC-3) was > 100 µM (inactive) and the GI50 (SR) was > 100 µM (inactive). For the same molecule, the GI50 (SNB-19) was > 100 µM (inactive), the GI50 (OVCAR-5) was > 100 µM (inactive) and the GI50 (EKVX) was > 100 µM (inactive). For the same molecule, the GI50 (SW-620) was > 100 µM (inactive), the GI50 (SK-MEL-5) was > 100 µM (inactive) and the GI50 (OVCAR-3) was > 100 µM (inactive). The GI50 (SK-OV-3) was > 100 µM (inactive), the GI50 (MCF7) was > 100 µM (inactive) and the GI50 (NCI-H226) was > 100 µM (inactive). For the same molecule, the GI50 (HOP-92) was > 100 µM (inactive), the GI50 (SK-MEL-2) was > 100 µM (inactive) and the GI50 (RPMI-8226) was > 100 µM (inactive). For the same molecule, the GI50 (SK-MEL-28) was > 100 µM (inactive), the GI50 (BT-549) was > 100 µM (inactive) and the GI50 (NCI-H23) was > 100 µM (inactive). For the same molecule, the GI50 (MOLT-4) was > 100 µM (inactive), the GI50 (SF-539) was > 100 µM (inactive) and the GI50 (U-251) was > 100 µM (inactive). The GI50 (TK-10) was > 100 µM (inactive), the GI50 (IGROV-1) was > 100 µM (inactive) and the GI50 (HT-29) was > 100 µM (inactive). For the same molecule, the GI50 (A549) was > 100 µM (inactive), the GI50 (M14) was > 100 µM (inactive) and the GI50 (MDA-MB-435) was > 100 µM (inactive). The GI50 (RXF 393) was > 100 µM (inactive), the GI50 (HCT-15) was > 100 µM and the GI50 (UO-31) was > 100 µM (inactive).
`COC(=O)c1c[nH]c(=O)[nH]c1=O` [ISOOROTIC ACID METHYL ESTER] was tested, and the GI50 (UACC-257) was > 100 µM (inactive), the GI50 (K562) was > 100 µM (inactive) and the GI50 (UACC-62) was > 100 µM (inactive). For the same molecule, the GI50 (SN12C) was > 100 µM (inactive), the GI50 (HCC 2998) was > 100 µM (inactive) and the GI50 (Hs-578T) was > 100 µM (inactive). For the same molecule, the GI50 (NCI-H460) was > 100 µM (inactive), the GI50 (HCT-116) was > 100 µM (inactive) and the GI50 (PC-3) was > 100 µM (inactive). The GI50 (SR) was > 100 µM (inactive), the GI50 (SF-295) was > 100 µM (inactive) and the GI50 (786-0) was > 100 µM (inactive). For the same molecule, the GI50 (SNB-19) was > 100 µM (inactive), the GI50 (OVCAR-5) was > 100 µM (inactive) and the GI50 (EKVX) was > 100 µM (inactive). For the same molecule, the GI50 (SW-620) was > 100 µM (inactive), the GI50 (SK-MEL-5) was > 100 µM (inactive) and the GI50 (COLO 205) was > 100 µM (inactive). The GI50 (OVCAR-3) was > 100 µM (inactive), the GI50 (MCF7) was > 100 µM (inactive) and the GI50 (HOP-92) was 30.5 µM (inactive). For the same molecule, the GI50 (SK-MEL-2) was > 100 µM (inactive), the GI50 (NCI/ADR-RES) was > 100 µM (inactive) and the GI50 (KM12) was > 100 µM (inactive). The GI50 (RPMI-8226) was > 100 µM (inactive), the GI50 (DU-145) was > 100 µM (inactive) and the GI50 (SF-268) was > 100 µM (inactive). The GI50 (SK-MEL-28) was > 100 µM (inactive), the GI50 (SNB-75) was > 100 µM (inactive) and the GI50 (NCI-H23) was > 100 µM (inactive). For the same molecule, the GI50 (LOX IMVI) was > 100 µM (inactive), the GI50 (MOLT-4) was > 100 µM (inactive) and the GI50 (SF-539) was > 100 µM (inactive). For the same molecule, the GI50 (TK-10) was > 100 µM (inactive), the GI50 (IGROV-1) was > 100 µM (inactive) and the GI50 (A549) was > 100 µM (inactive). The GI50 (NCI-H522) was > 100 µM (inactive), the GI50 (M14) was > 100 µM (inactive) and the GI50 (MDA-MB-435) was > 100 µM (inactive). The GI50 (MDA-N) was > 100 µM (inactive), the GI50 (OVCAR-8) was > 100 µM (inactive) and the GI50 (CCRF-CEM) was > 100 µM (inactive). For the same molecule, the GI50 (HCT-15) was > 100 µM, the GI50 (UO-31) was > 100 µM (inactive) and the GI50 (ACHN) was > 100 µM (inactive). For the same molecule, the GI50 (CAKI-1) was > 100 µM (inactive) and the GI50 (T47D) was > 100 µM (inactive).
